Assay results reported in US8796302B2 (priority 2004, dated 2014).

Tests used:
[1] = system: dopaminergic neurons in rat primary mesencephalic neuron-glia cultures; assay: [3H]DA uptake in LPS-treated mesencephalic neuron-glia cultures; assay type: cell-based; conditions: LPS 10 ng/ml, 7 days; for LPS-induced decrease in [3H]-dopamine uptake: 30 min pretreatment
Protocol: Neuron-glia cultures were prepared from the ventral mesencephalic tissues of embryonic day 13-14 Fisher F344 rats or day 12-13 wild-type C57BL/6J (gp91phox^+/+) mice. Dissociated cells were seeded at 1×10^5/well and 5×10^5/well to poly-D-lysine-coated 96-well and 24-well plates, respectively. Cells were maintained at about 37° C. in a humidified atmosphere of 5% CO2 and 95% air, in minimal essential medium (MEM) containing 10% fetal bovine serum (FBS), 10% horse serum (HS), 1 gm/l glucose, 2 mM L-glutamine, 1 mM sodium pyruvate, 100 μM nonessential amino acids, 50 U/ml penicillin, and 50 μg/ml streptomycin. Seven-day-old cultures were used for treatment.
Dextromethorphan (obtained from Sigma-Aldrich (St. Louis, Mo.) as dextromethorphan hydrobromide) was freshly prepared as a stock solution (1 mM) in ddH2O and sterile-filtered right before use. For treatment of the cultures, the DM was serially diluted (10×) with fresh culture medium containing 2% of fetal bovine and horse serum. The neuron-glia cultures were pretreated with 10^−5-10^−17M DM 30 minutes prior to treatment with 10 ng/ml of LPS.
Seven days after treatment, the degeneration of dopaminergic neurons was assessed by [^3H]-dopamine (DA) uptake assays. The [^3H]-DA uptake assays were performed as follows. Cultures were washed twice with warm Krebs-Ringer buffer (KRB, 16 mM sodium phosphate, 119 mM NaCl, 4.7 mM KCl, 1.8 mM CaCl2, 1.2 mM MgSO4, 1.3 mM EDTA, and 5.6 mM glucose; pH7.4) and then incubated for about 20 minutes at about 37° C. with 1 μM [^3H]-DA in KRB in order to allow for the uptake of DA. Afterwards, the cultures were washed (three times) with ice-cold KRB and the cells were collected in 1 N NaOH. Radioactivity was determined by liquid scintillation counting.
This example tests whether or not post-treatment with DM is still neuroprotective in LPS-induced neurotoxicity. Neuron-glia co-cultures as prepared in Example 1 were first treated with LPS (20 ng/ml) for twelve hours, and then LPS was removed by removing the media from the cultures and washing twice with PBS. Different concentrations of DM (10^−5, 10^−10, and 10^−14 M) were then added to the cultures and incubation was continued for another 6 or 7 days. The DA uptake and the superoxide production were measured as in Example 1 and 5.
Neuron-glia cell cultures were prepared as in Example 1, and pretreated with the various peptide fragments of Table 1 (peptide fragments were obtained from BACHEM) for 30 minutes followed by addition of 5 ng/ml of LPS. DA neurotoxicity was measured as an Example 1 at 7 days post treatment.
DA neurotoxicity was measured at 7 days post treatment as in Example 1. Dopaminergic neuronal death was determined at 7 days post treatment using immunocytochemical staining as in Example 2.
Neuron-glia cultures were prepared from the ventral mesencephalic tissues of embryonic day 13-14 rats. Dissociated cells were seeded at 1×10^5/well and 5×10^5/well to poly-D-lysine-coated 96-well and 24-well plates, respectively.

TNFα = TNFα production in neuron-glia cultures of PHOX+/+ and PHOX−/− mice; assay type: cell-based, mouse; conditions: DM 10^−14 M
Protocol: Neurotoxicity was assessed by DA uptake as described in Example 1. TNFα production was measured by ELISA and iROS was determined by DCFDA as in Example 5. Results are expressed as a percentage of the control culture in FIG. 7A, pg/ml in FIG. 7B, and difference from control in FIG. 7C, respectively, and are the mean±S.E.M. of five individual experiments with triplicates in each experiment. *, P<0.05 compared with LPS culture.
The rat and mouse ventral mesencephalic neuron-glia cultures were prepared as in Example 1. […] DA neurotoxicity was measured by using the [^3H] DA uptake assay as in Example 1. The data are expressed as the percent of the control cultures and are the mean±SEM. The release of TNFα was measured with a commercially available enzyme-linked immunosorbent assay kit. *P<0.05, **P<0.01, compared to control. The amount of TNFα was measured as in Example 2.

CD-1 mice given LPS/GalN = assay: Survival in LPS/GalN endotoxic shock; assay type: in vivo, mouse; conditions: for Rate of survival % / No. of animals survived: 12 hrs; for Rate of survival: 30 min before and 2, 4 hr after LPS/GalN; for Rate of survival / Survived animal: 12 hours
Protocol: Animal studies were performed in accordance with National Institutes of Health Guidelines and with the approval of the Institute's Animal Care and Use Committee, and followed NIH guidelines. Male, CD-1 mice (6-week-old) were purchased from Charles River laboratories, fed on a standard diet and with tap water ad libitum for two weeks. Environmental conditions were standardized, including a room temperature of 21° C. and 12 hours artificial lighting. Mice were fasted 12 hrs before use.
Endotoxic shock was induced in the mice by administering a single intraperitoneal dose of lipopolysaccharide/D-(+/−)Glactosomine (Sigma, St. Louis, Mo.) (LPS/GalN) (20 μg/700 mg/kg) in saline. To test whether DM has protective effects on septic shock, varying concentrations (6.25, 12.5 and 25 mg/kg) of DM were injected into the mice subcutaneously 30 min before, and 2, and 4 hr after the injection of LPS/GalN. Control mice received the same amount of saline. At different time points, the animals were killed, and serum and liver samples were collected.
To examine the therapeutic effects of DM, animals were treated with […] DM at 30 min before LPS/GalN injection, and 30, 60 and 120 min after LPS/GalN administration. Serum ALT was measured to evaluate the therapeutic effects of the DM. Survival rate was evaluated within 12 hours after endotoxin administration.
Endotoxic shock were induced in mice in the same was as Example 16. The mice were given LPS/GalN (20 μg/700 mg/kg, ip) with or without the administration of DM (10 mg/kg, 1 μg/kg and 100 pg/kg, s.c.) 30 min before LPS/GalN. The survival rate of the animals was evaluated 12 hrs after LPS/GalN treatment.

## Oc1ccc2c(c1)[C@@]13CCCC[C@H]1[C@@H](C2)NCC3 [3-HM, 3-hydroxymorphinan]
[1]; 3-HM 1-5 μM pretreatment
  LPS-induced reduction in DA uptake: significantly attenuated the LPS-induced reduction in DA uptake

## COc1ccc2c(c1)[C@@]13CCCC[C@H]1[C@@H](C2)N(C)CC3 [DM, d-3-methoxy-N-methylmorphinan]
TNFα; PHOX+/+ mice
  LPS-induced TNFα production: significantly reduce TNFα production
TNFα; PHOX−/− mice
  LPS-induced TNFα production: not seen
CD-1 mice given LPS/GalN; DM 100 pg/kg s.c. 30 min before LPS/GalN
  Rate of survival %: 76.6%
CD-1 mice given LPS/GalN; DM 100 pg/kg s.c., 47 animals in group
  No. of animals survived: 36
CD-1 mice given LPS/GalN; DM 1 ug/kg s.c. 30 min before LPS/GalN
  Rate of survival %: 58.8%
CD-1 mice given LPS/GalN; DM 1 ug/kg s.c., 17 animals in group
  No. of animals survived: 10
CD-1 mice given LPS/GalN; DM 6.25 mg/kg
  Rate of survival: 67%
CD-1 mice given LPS/GalN; DM 6.25 mg/kg, listed as Dextromethorphan
  Rate of survival: 66.6%
CD-1 mice given LPS/GalN; DM 6.25 mg/kg, n = 12
  Survived animal: 8
CD-1 mice given LPS/GalN; DM 10 mg/kg s.c. 30 min before LPS/GalN
  Rate of survival %: 84.6%
CD-1 mice given LPS/GalN; DM 10 mg/kg s.c., 26 animals in group
  No. of animals survived: 22
CD-1 mice given LPS/GalN; DM 12.5 mg/kg
  Rate of survival: about 90%
CD-1 mice given LPS/GalN; DM 12.5 mg/kg, listed as Dextromethorphan
  Rate of survival: 89.3%
CD-1 mice given LPS/GalN; DM 12.5 mg/kg, n = 56
  Survived animal: 50
CD-1 mice given LPS/GalN; DM 25 mg/kg
  Rate of survival: about 90%
CD-1 mice given LPS/GalN; DM 25 mg/kg, listed as Dextromethorphan
  Rate of survival: 91.6%
CD-1 mice given LPS/GalN; DM 25 mg/kg, n = 12
  Survived animal: 11
CD-1 mice given LPS/GalN; DM 30 min post LPS/GalN challenge
  protection against LPS/GalN-induced lethal shock: also observed
[1]; DM 10^−5 and 10^−6 M
  LPS-induced decrease in [3H]-dopamine uptake: attenuated the LPS-induced decrease
[1]; DM 10^−8 to 10^−12 M
  LPS-induced decrease in [3H]-dopamine uptake: no protective effects
